Reference: publication PMC11089561, “Structural Investigations of Phthalazinone Derivatives as Allosteric Inhibitors of Human DNA Methyltransferase 3A” (ACS Medicinal Chemistry Letters, 2024)

Legend:
[1] = biological target: T1, DNMT3A_CD (catalytic domain of DNMT3A) (Homo sapiens, UniProt Q9Y6K1); assay: In vitro methylation assay, IC50 determination ([3H]-SAM, poly dI-dC); format: biochemical; settings: 150 nM DNMT3A, 10 uM SAM, 10 uM poly dI-dC; 1 hour preincubation; Hill slope constrained to -2
T1 construct: The catalytic domain of DNMT3A (residues 634 -912) were used for all experiments; made in house; host or cells: E. coli NiCo21 (DE3) (NEB)
Description: Expression and Purification of DNMT3A_CD
The catalytic domain of DNMT3A (residues 634 -912) were used for all experiments […]
DNMT3A_CD was expressed in NiCo21 (DE3) cells (NEB) using a codon optimized plasmid pET28a-hDNMT3A_CD (∆1-611). Cell cultures were grown in LB medium at 37 °C to an OD600 = 0.8. Cultures were cooled to 25 °C, then expression was induced by the addition of 1 mM IPTG (Gold Biotechnology). Cells were harvested by centrifugation after 5 hours and flash frozen in liquid nitrogen for storage at -80 °C.
Cells were resuspended in lysis buffer containing 50 mM K2HPO4/KH2PO4, 500 mM NaCl, 50 mM imidazole, 10% glycerol [v/v], 1 mM EDTA and 1 mM PMSF at pH 7.8.
Sonication was used for lysis and the supernatant was collected after centrifugation at 18,000 x g for 1 hour. Lysates were applied to an ÄKTA start FPLC system (GE healthcare) and loaded onto a 1 mL HisTrap Excel column (Cytiva). The column was washed with 50 mL of lysis […]
(§1) buffer and eluted with an identical buffer containing a higher imidazole concentration of 500 mM. Eluted protein was desalted with a 5 mL HiTrap Desalting column (Cytiva) and flash frozen in liquid nitrogen for storage at -80 °C. DNMT3A_CD concentration was determined using UV-vis with an extinction coefficient determined by protparam of 38,180 M-1 cm-1 to represent the monomeric state.
(§2) In Vitro Methylation Assays
(§3) Methylation assays were used to determine nanomolar amounts of methylated DNA product. Reactions were carried out in 50 mM K2HPO4/KH2PO4 at pH 7.8, 1 mM EDTA, 1 mM DTT, 0.2 mg/mL BSA, 20 mM NaCl, 150 nM DNMT3A_CD, 10 uM poly dI-dC (Sigma Aldrich), and 10 uM SAM (Sigma Aldrich) unless otherwise stated. The SAM cofactor was diluted with [3H]-SAM from PerkinElmer in 10 mM H2SO4. All inhibitors were dissolved and diluted in DMSO prior to addition to methylation reactions. Reactions with and without […]
All reactions containing inhibitors were preincubated with DNMT3A and inhibitor for 1 hour. Reactions were activated with poly dI-dC to a final volume of 20 uL, then incubated at 37 °C for 1 hour. Reaction aliquots were spotted on Hybond-N+ membranes (GE healthcare), then washed with 50 mM K2HPO4/KH2PO4 at pH 7.8 and ethanol. Membranes were dried and counted using a Hidex LS 300 scintillation counter. […]
Determination of IC50 Value
Percent activity of methylation assays was determined by comparing activities of assays with inhibitor to assays without inhibitor. Sigmoidal dose-response curves of percent activity vs compound concentration were fitted in Prism 10.
All assays were performed in triplicate, with additional repetitions added as necessary. […]
14). Reactions consisted of 150 nM DNMT3A, 10 uM SAM, and 10 uM poly dI -dC. The data

[2] = biological target: T1, DNMT3A_CD (catalytic domain of DNMT3A); assay: Kinetics studies: methylation assays with varied SAM or poly dI-dC, fit to inhibition models; format: biochemical; settings: for α coefficient from mixed-type inhibition model, varied SAM: SAM varied 0.15-10 uM, poly dI-dC 10 uM; for α coefficient from mixed-type inhibition model, varied SAM / α coefficient from mixed-type inhibition model, varied DNA: α < 1 = preference for enzyme-substrate complex; for Best fit inhibition model: with DNA and SAM varied, R2 comparison and F-test, p-value < 0.0001; for α coefficient from mixed-type inhibition model, varied DNA: poly dI-dC varied 0.15-10 uM, SAM 10 uM
From the text: Using methylation assays with and without inhibitor and varied concentrations of DNA or SAM, we generated nonlinear Michaelis–Menten curves with corresponding double-reciprocal plots (Figure S2) and fit them to classical inhibition models. […] By analyzing double-reciprocal plots, this mechanistic model was confirmed because the changes in y-intercept and slope are inconsistent with competitive and uncompetitive forms of inhibition, respectively. […] Furthermore, the selected analogs also bind more tightly to the enzyme–substrate complex than to the free enzyme with both DNA and SAM (Table S2). This preference could be beneficial since DNMT3A bound to DNA is likely the dominant species in a cellular context. […]
as §1, §2, §3
All reactions containing inhibitors were preincubated with DNMT3A and inhibitor for 1 hour. Reactions were activated with poly dI-dC to a final volume of 20 uL, then incubated at 37 °C for 1 hour. Reaction aliquots were spotted on Hybond-N+ membranes (GE healthcare), then washed with 50 mM K2HPO4/KH2PO4 at pH 7.8 and ethanol. Membranes were dried and counted using a Hidex LS 300 scintillation counter.
In vitro methylation assays were performed as described above using two concentrations of inhibitor (0 uM and ~IC50) and varied concentrations of substrate SAM or poly dI-dC while the other substrate is held at a saturating concentration of 10 uM. For the variation of SAM, concentrations of 0.15, 0.25, 0.5, 1, 3 and 10 uM were used, while for the variation of poly dI-dC concentrations of 0.15, 0.25, 0.5, 1, 2.5, and 10 uM were used. Data was fitted globally with Prism 10 and best-fit inhibition models were determined using an F-test (p < 0.0001).
Lineweaver-Burke plots were generated and fit to a linear regression model. Data represent the mean and standard deviation of three independent reactions. […]
Figure S2: Double reciprocal plots for 1a (A, B), 3 (C, D), 4 (E, F), 5 (G, H), and 10 (I, J) with DNA and SAM. The data points represent the mean and standard deviation of three independent reactions. Reactions were done at initial velocity conditions using 150 nM DNMT3A, and varied concentrations of one substrate (0.15 –10 uM) while the other was saturated at 10 uM. Linear fits […]
competitive inhibition and uncompetitive inhibition respectively.
(1 picture or pasted object on this page, not shown here) […]
coefficient is a measure of the inhibitor’s preference for E and ES kinetic species.
Table S1: Determination of best fit inhibition models for 1a, 3, 4, 5, and 10 by R2 comparison […]
Most of the inhibitors have α < 1, where the inhibitor prefers the enzyme-substrate complex. […]

[3] = biological target: DNMT3A; parameters: method as in PMID 33705897; settings: with SAM; read-out: Ki with S-adenosyl methionine (SAM, AdoMet); cited from earlier work
[4] = tested on: acute myeloid leukemia cell; parameters: method as in PMID 35866897; settings: cited from earlier work
[5] = parameters: method as in PMID 26935942; settings: versus FDA-approved inhibitors (azacytidine and decitabine); cited from earlier work

T1 sequence (Q9Y6K1 634-912): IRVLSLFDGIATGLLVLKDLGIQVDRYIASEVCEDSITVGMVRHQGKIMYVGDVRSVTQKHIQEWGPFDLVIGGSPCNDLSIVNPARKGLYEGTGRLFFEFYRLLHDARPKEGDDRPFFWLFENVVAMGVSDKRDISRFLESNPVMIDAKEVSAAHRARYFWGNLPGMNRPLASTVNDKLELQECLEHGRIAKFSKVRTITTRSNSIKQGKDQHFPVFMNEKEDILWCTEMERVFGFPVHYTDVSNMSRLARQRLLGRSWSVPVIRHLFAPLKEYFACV

Structure (SMILES)	IC50 [1]	Best fit inhibition model [2]	further results
O=C1[C@@H]2CC=CC[C@@H]2C(c2cccc(OCCCCOc3ccc(-c4nn[nH]n4)cc3)c2)=NN1Cc1ccccc1 [Compound 6]	13 µM	–	–
O=c1c2ccccc2c(-c2cccc(OCCCCOc3ccc(-c4nn[nH]n4)cc3)c2)nn1C1CCCCCC1 [Compound 13]	13 µM	–	–
O=C1[C@@H]2CC=CC[C@@H]2C(c2cccc(OC/C=C\COc3ccc(-c4nn[nH]n4)cc3)c2)=NN1C1CCCCCC1 [Compound 10]	11 µM	mixed-type inhibition model	α coefficient from mixed-type inhibition model, varied SAM [2]: > 1
O=C1[C@@H]2CC=CC[C@@H]2C(c2cccc(OCCCCCOc3ccc(-c4nn[nH]n4)cc3)c2)=NN1C1CCCCCC1 [Compound 9]	9 µM	–	–
COc1ccc(C2=NN(C3CCCCCC3)C(=O)[C@@H]3CC=CC[C@H]23)cc1OCCCCOc1ccc(C(=O)O)cc1 [Compound 3]	23 µM	mixed-type inhibition model	α coefficient from mixed-type inhibition model, varied DNA [2]: > 1
O=C1[C@@H]2CC=CC[C@@H]2C(c2cccc(OCCCOc3ccc(-c4nn[nH]n4)cc3)c2)=NN1C1CCCCCC1 [Compound 8]	11 µM	–	–
CN1N=C(c2cccc(OCCCCOc3ccc(-c4nn[nH]n4)cc3)c2)[C@H]2CC=CC[C@H]2C1=O [Compound 5]	41 µM	mixed-type inhibition model	–
O=C1[C@@H]2CC=CC[C@@H]2C(c2cccc(OC/C=C/COc3ccc(-c4nn[nH]n4)cc3)c2)=NN1C1CCCCCC1 [Compound 11]	13 µM	–	–
O=C1[C@@H]2CC=CC[C@@H]2C(c2cccc(OCCCCOc3ccc(-c4nn[nH]n4)cc3)c2)=NN1C1CCCCCC1 [Compound 4]	10 µM	mixed-type inhibition model	–
COc1ccc(C2=NN(C3CCCCCC3)C(=O)C2(C)C)cc1OCCCCOc1ccc(-c2nnn[nH]2)cc1 [Compound 1b]	–	–	Ki [3]: 3.7 to 7.06 µM; AML cell differentiation [4]: induce acute myeloid leukemia cell differentiation; Cytotoxicity [5]: significantly less cytotoxic than FDA-approved inhibitors
COc1ccc(C2=NN(C3CCCCCC3)C(=O)[C@@H]3CC=CC[C@H]23)cc1OCCCCOc1ccc(-c2nnn[nH]2)cc1 [Compound 1a]	14 ± 2 µM	mixed-type inhibition model	Ki [3]: 9.16 to 18.9 µM; AML cell differentiation [4]: induce acute myeloid leukemia cell differentiation; α coefficient from mixed-type inhibition model, varied SAM [2]: < 1; α coefficient from mixed-type inhibition model, varied DNA [2]: < 1; Cytotoxicity [5]: significantly less cytotoxic than FDA-approved inhibitors
c1ccc(OCCCCOc2ccc(-c3nn[nH]n3)cc2)cc1 [Compound 14]	> 100 µM	–	–
O=C(COc1cccc(C2=NN(C3CCCCCC3)C(=O)[C@@H]3CC=CC[C@H]23)c1)Nc1ccc(-c2nn[nH]n2)cc1 [Compound 12]	38 µM	–	–
O=C1[C@@H]2CC=CC[C@@H]2C(c2cccc(OCCCCOc3ccc(-c4nn[nH]n4)cc3)c2)=NN1Cc1ccc(F)c(F)c1 [Compound 7]	18 µM	–	–
COc1ccc(C2=NN(C3CCCCCC3)C(=O)[C@@H]3CC=CC[C@H]23)cc1OCCCCOc1ccc(C#N)cc1 [Compound 2]	> 300 µM	–	–
